According to publication PMC3519527, “Compounds from Sorindeia juglandifolia (Anacardiaceae) exhibit potent anti-plasmodial activities in vitro and in vivo” (Malaria Journal, 2012):
Where “and” joins values, the source holds several entries; their conditions need not be identical. Equal values may be shown once. Where a name gives a salt, the structure may show the parent alone. Read-outs that look alike come from different tables or passages of the source. Blank lines part the entries; values can stand above or below the compound they belong to.

What was measured:
[1] = test system: Plasmodium falciparum chloroquine-resistant strain W2; assay: In vitro screening against Plasmodium falciparum W2 (flow cytometry, 48 h); assay type: cell-based; conditions: read-out: P. falciparum W2 IC50±SD
Experimental: Plasmodium falciparum strain W2, known to be resistant to chloroquine and other anti-malarials, was cultured in sealed flasks at 37°C, in a 3% O2, […] and 91% N2 atmosphere in RPMI 1640, 25 mM HEPES, pH 7.4, supplemented with heat inactivated 10% human serum and human erythrocytes to achieve a 2% haematocrit. Serum and erythrocytes were purified from blood voluntarily given by adults with no recent contact with malaria, and who have signed an informed consent form. Parasites were synchronized in the ring stage by serial treatment with 5% sorbitol (Sigma) and tested at 1% parasitaemia. Stock solutions of plant extracts were prepared as 1 mg/ml in DMSO, diluted as needed for individual experiments, and tested in triplicate as described previously. The stock solutions were diluted in supplemented RPMI 1640 medium so as to have at most 0.2% DMSO in the final reaction medium. Equal volumes (100μl) of inhibitors and 1% parasitaemia, 4% haematocrit culture were then added and gently mixed thoroughly. Negative controls contained equal concentrations of DMSO. Positive controls contained 1 μM chloroquine phosphate (Sigma). Cultures were incubated at 37°C for 48 h. Parasites at the ring stage were thereafter fixed by replacing the serum medium by an equal volume of 1% formaldehyde in PBS. Aliquots (5 μl) of each culture were then added to round-bottom polystyrene 96 well plates containing 150 μl of 100 mM NH4Cl, 0.1% Triton X- 100 and 1 nM YOYO-1 nuclear dye (Molecular Probes) in PBS, and the parasitaemia of treated and control cultures were compared using a Becton-Dickinson FACSort flow cytometer equipped with AMS-1 loader (Cytek Development) to count nucleated (parasitized) erythrocytes. Data acquisition was performed using Cell Quest software.

[2] = test system: P. falciparum field isolates; assay: In vitro screening against Plasmodium falciparum field isolates (Giemsa smears, 48 h); assay type: cell-based
Experimental: Plasmodium falciparum isolates were prepared as described previously. Blood was collected from outpatients presenting at the Etoug-Ebe Baptist Health Centre in Yaoundé with uncomplicated malaria. Patients older than five years of age with mono infection with P. falciparum and parasite density greater than 6,000 asexual parasites per microliter of blood were considered for inclusion in the study. Those with recent history of self-medication with anti-malarial drugs were excluded. After patients agreed to participate in the study and signed the consent form, 5 mL of blood was collected from them by venipuncture into heparinized tubes. The blood was centrifuged at 3,000 rpm for 15 min and the supernatant discarded. The pellets were suspended in 10 mL of pre-warmed RPMI 1640 medium and centrifuged again twice at 3,000 rpm for 5 min, and the supernatant was then discarded. The volume of the packed-cells was estimated and mixed with an equal amount of RPMI 1640, 25 mM HEPES, pH 7.4, and subsequently used at 4% haematocrit for experiments. Thin smears were evaluated to assess the parasitaemia, the developmental stages of parasites, and the colour, shape and size of red blood cells. Nine such isolates were prepared and subsequently used for experiments.
The activity of plant products was assessed as previously described. […] Stock solutions of plant extracts were prepared at 1 mg/ml in DMSO and diluted as needed for individual experiments in 96-well plates using RPMI 1640, to achieve a maximum final DMSO concentration of 0.2%. Chloroquine was used as positive control at 1 μM, and the negative control was an equal concentration of DMSO. To assess the susceptibility of parasites to drugs, they were maintained in RPMI 1640 supplemented with 25 mM HEPES buffer (pH 7.4), 0.05% ampicillin, and 10% AB+ human serum at 37°C, in a candle jar. To achieve this, 200 μl parasite suspensions at 4% haematocrit and 0.1%– 0.3% parasitaemia were added to 50 μl of each concentration of inhibitor in individual wells, each tested in triplicate. Cultures were incubated at 37°C for 48 h in a candle jar. To estimate the effects of inhibitors after 48 h, thin smears from treated and control cultures were fixed in methanol for 30 s, stained using fresh 5% Giemsa solution (Sigma) in phosphate buffer (pH 7.1), and examined by counting the parasitaemia per 100 erythrocytes. IC50s were calculated from curves plotting percent growth versus drug concentration using Prism 5.0 software with data fitted by nonlinear regression to the variable slope sigmoidal dose–response formula y = 100/[1 + 10^(logIC50− x)H, where H is the Hill coefficient or slope factor [5].

recombinant falcipain-2 = target: T1, recombinant falcipain-2 (Plasmodium falciparum, UniProt Q8I6U4); assay: Falcipain-2 inhibition (Z-Leu-Arg-AMC hydrolysis); assay type: biochemical; conditions: recombinant enzyme, pH 5.5, triplicate; for IC50: read-out: Falcipain-2 IC50±SD
T1 construct: made in house
T1 sequence (Q8I6U4 244-484): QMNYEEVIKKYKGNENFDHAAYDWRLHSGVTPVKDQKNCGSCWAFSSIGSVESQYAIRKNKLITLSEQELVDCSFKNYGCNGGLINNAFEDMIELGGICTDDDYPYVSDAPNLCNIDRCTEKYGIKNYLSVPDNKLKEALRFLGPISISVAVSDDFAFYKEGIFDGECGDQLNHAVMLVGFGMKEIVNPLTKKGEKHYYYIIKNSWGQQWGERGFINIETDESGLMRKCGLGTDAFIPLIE
Experimental: Falcipain-2 activity was measured as hydrolysis of the fluorogenic substrate benzyloxycarbonyl-Leu-Arg-7-amino-4-methyl-coumarin (Z-Leu-Arg-AMC) using a Fluoroskan II spectrofluorometer, as described previously. For inhibitor assays, recombinant falcipain-2 prepared as described previously was incubated with inhibitors (added from stocks concentrated 100- to 1,000-fold in dimethyl sulfoxide [DMSO]) with 10 mM dithiothreitol, pH 5.5, for 30 min at room temperature before the substrate (50 μM) was added. Equal concentrations of enzyme were used for each experiment. Multiple inhibitor concentrations were studied in triplicate, and the rates of hydrolysis were determined and compared to those of controls containing equal concentrations of DMSO. All values were normalized to the control activity, and IC50s were calculated with the Prism 5.0 program, with data fitted by nonlinear regression.

[3] = test system: Plasmodium berghei strain B; assay: In vivo suppressive test in mice; design: species or system Plasmodium berghei in Swiss albino mice; conditions: for SD50 (suppressive dose at 50%): oral, parasitaemia 24 h after last dose
Experimental: (§1) Compound 1 (2,3,6-trihydroxy benzoic acid), obtained from the fractionation of S.juglandifolia extract, was assessed in vivo using the Plasmodium berghei rodent parasite model, according to the procedure described by Okokon et al.[12] with a few modifications. Plasmodium berghei strain B (MRA-406, MR4, ATCC® Manassas Virginia) was obtained from BEI Resources and used for the experiments. Female Swiss albino mice aged eight weeks and weighing ~20 g were used for efficacy and toxicity experiments. These animals were bred in the animal house of the Faculty of Medicine, University of Yaoundé I. They were fed a standard laboratory diet (S.P.C. Ltd., Bafoussam, Cameroon) and given clean tap water ad libitum. Animal welfare requirements were strictly considered during the experiments, as described in the protocol approved by the National Ethics Committee (Reg. No.FWAIRB00001954). To start infections, a cryotube of parasites was thawed and the undiluted contents were injected immediately i.p. into naïve recipient mice. Three days after infection, the parasitaemia was evaluated daily in tail vein blood through Giemsa-stained thin smear observation under oil immersion at 100X magnification. Passage of infection into new mice consisted of an i.p. injection of 200 μL of 10^6 infected erythrocytes/mL sterile PBS. The test compound was dissolved and diluted in Tween 20: Ethanol (7:3 v/v).
Preliminary screening of the compound consisted of a suppressive test. To achieve this, animals were infected i.p. with 200 μL of 10^6 infected erythrocytes/mL sterile PBS. Four hours after infection, duplicate batches of animals were treated as follows: four batches of six mice each were given test drug orally at respective dosages of 10, 30, 50 and 100 mg/kg, and subsequently once daily for four consecutive days. Negative controls consisted of one batch of 6 infected mice receiving no drug (dose 0), and one batch of six uninfected animals. Positive controls consisted of one batch of infected mice receiving quinine sulfate at 24 mg/kg.
(§2) Curative assays were subsequently conducted using the same setting, with animal receiving drug at daily oral dosages of 10, 30, 50 and 100 mg/kg for 5 consecutive days, starting day 3 (72 hours) after infection. Thin blood smears were made daily from the tail blood of mice and the level of parasitaemia assessed by examination of Giemsa-stained smears using a microscope at 100X magnification.

[4] = test system: Plasmodium berghei strain B; assay: In vivo curative test in mice; design: species or system Plasmodium berghei in Swiss albino mice
Experimental: as §1, §2

[5] = Plasmodium falciparum, W2, 48 h, W2 strain, 48 h, triplicate
[6] = Plasmodium falciparum, isolate E01, read-out: IC50±SD
[7] = Plasmodium falciparum, isolate E02, read-out: IC50±SD
[8] = Plasmodium falciparum, isolate E03, read-out: IC50±SD
[9] = Plasmodium falciparum, isolate E04, read-out: IC50±SD
[10] = Plasmodium falciparum, isolate E05, read-out: IC50±SD
[11] = Plasmodium falciparum, isolate E06, read-out: IC50±SD
[12] = Plasmodium falciparum, isolate E07, read-out: IC50±SD
[13] = Plasmodium falciparum, isolate E08, read-out: IC50±SD
[14] = Plasmodium falciparum, isolate E09, read-out: IC50±SD

SMILES: C[C@@H]1CC[C@H]2[C@@H](C)C(=O)O[C@@H]3O[C@@]4(C)CC[C@@H]1[C@]32OO4 [ART, artemisinin, reference compound]
IC50 [1, 5]: 0.007 ± 0.01 µg/mL

SMILES: CCN(CC)CCCC(C)Nc1ccnc2cc(Cl)ccc12 (centres unmarked) [CQ, chloroquine, reference compound]
IC50 ([1]; Plasmodium falciparum, W2, 48 h): 0.05 ± 0.01 µg/mL | IC50 ([2]; Plasmodium falciparum, read-out: IC50 against P. falciparum isolates, span over the nine field isolates): 0.0166 to 0.0384 µg/mL | IC50 ([2]; Plasmodium falciparum, read-out: IC50±SD, isolate E01): 0.0254 ± 0.00347 µg/mL | IC50 ([2]; Plasmodium falciparum, read-out: IC50±SD, isolate E02): 0.0233 ± 0.019 µg/mL | IC50 ([2]; Plasmodium falciparum, read-out: IC50±SD, isolate E03): 0.0384 ± 0.00437 µg/mL | IC50 ([2]; Plasmodium falciparum, read-out: IC50±SD, isolate E04): 0.0272 ± 0.00072 µg/mL | IC50 ([2]; Plasmodium falciparum, read-out: IC50±SD, isolate E05): 0.0166 ± 0.00148 µg/mL | IC50 ([2]; Plasmodium falciparum, read-out: IC50±SD, isolate E06): 0.0192 ± 0.00486 µg/mL | IC50 ([2]; Plasmodium falciparum, read-out: IC50±SD, isolate E07): 0.0243 ± 0.00332 µg/mL | IC50 ([2]; Plasmodium falciparum, read-out: IC50±SD, isolate E08): 0.0187 ± 0.00094 µg/mL | IC50 ([2]; Plasmodium falciparum, read-out: IC50±SD, isolate E09): 0.0188 ± 0.00187 µg/mL

SMILES: O=C(O)c1c(O)ccc(O)c1O [Compound 1, 2,3,6-trihydroxy benzoic acid]
IC50 [1, 5]: 16.5 µM | IC50 ([1]; W2 strain, 48 h, triplicate, listed as 2,3,6-trihydroxy benzoic acid (1)): 16.5 ± 0.47 µM | melting point: 188.5 to 190 °C | IC50 (recombinant falcipain-2): 35.4 µM | IC50 [2, 6]: 11.3 ± 0.92 µM | IC50 [2, 7]: 17.1 ± 0.48 µM | IC50 [2, 8]: 22 ± 0.93 µM | IC50 [2, 9]: 24.8 ± 1.04 µM | IC50 [2, 10]: 6.32 ± 0.16 µM | IC50 [2, 11]: 36.1 ± 2.01 µM | IC50 [2, 12]: 33.7 ± 0.61 µM | IC50 [2, 13]: 9.92 ± 4.82 µM | IC50 [2, 14]: 19.77 ± 0.14 µM | IC50 ([2]; Plasmodium falciparum, span over the nine field isolates, read-out: IC50 against P. falciparum isolates): 6.3 µM | IC50 ([2]; span over the nine field isolates, read-out: IC50 against P. falciparum isolates): 6.3 to 36.1 µM | Mean % Suppression/Inhibition ([3]; 10 mg/kg oral, once daily, 24 h after last dose): 22.73% | Mean % Suppression/Inhibition ([3]; 30 mg/kg oral, once daily, 24 h after last dose): 35.95% | Mean % Suppression/Inhibition ([3]; 50 mg/kg oral, once daily, 24 h after last dose): 53.66% | Mean % Suppression/Inhibition ([3]; 100 mg/kg oral, once daily, 24 h after last dose): 69.63% | SD50 (suppressive dose at 50%) [3]: 44.9 mg/kg and 44.9 ± 1.6 mg/kg | SD50 (suppressive dose at 50%) ([3]; listed as 2,3,6-trihydroxy benzoic acid (1)): ^cSD50 = 44.9 ± 1.6 mg/kg | Mean % Suppression/Inhibition ([4]; 10 mg/kg oral daily for 5 days from day 3): 20.95% | Mean % Suppression/Inhibition ([4]; 30 mg/kg oral daily for 5 days from day 3): 41.00% | Mean % Suppression/Inhibition ([4]; 50 mg/kg oral daily for 5 days from day 3): 57.27% | Mean % Suppression/Inhibition ([4]; 100 mg/kg oral daily for 5 days from day 3): 66.40% | ED50 ([4]; Plasmodium berghei, oral, parasitaemia 24 h after last dose, read-out: ED50 (effective dose at 50%)): 42.2 mg/kg

SMILES: C=C[C@H]1C[N@@]2CC[C@H]1C[C@H]2[C@H](O)c1ccnc2ccc(OC)cc12 [Quinine sulfate, quinine sulfate, reference compound]
Mean % Suppression/Inhibition ([3]; 24 mg/kg, positive control): 71.34% | Mean % Suppression/Inhibition ([4]; 24 mg/kg, positive control): 89.50%

Next, values leading:

IC50 [1, 5]: 13 µM | IC50 ([1]; W2 strain, 48 h, triplicate, listed as 2,3,6-trihydroxy methyl benzoate (2)): 13 ± 1.63 µM | IC50 (recombinant falcipain-2): 6.1 µM and 6.09 µM | IC50 [2, 6]: 7.02 ± 0.07 µM | IC50 [2, 7]: 14.7 ± 0.15 µM | IC50 [2, 8]: 19.8 ± 0.38 µM | IC50 [2, 9]: 18.8 ± 1.04 µM | IC50 [2, 10]: 12.2 ± 0.02 µM | IC50 [2, 11]: 23.1 ± 2.01 µM | IC50 [2, 12]: 26.69 ± 0.02 µM | IC50 [2, 13]: 13.3 ± 1.85 µM | IC50 [2, 14]: 24.4 ± 0.05 µM
SMILES: COC(=O)c1c(O)ccc(O)c1O [Compound 2, 2,3,6-trihydroxy methyl benzoate]

Falcipain-2 IC50±SD (recombinant falcipain-2): 0.049 ± 0.003 µg/mL
SMILES: CC(C)C[C@H](NC(=O)[C@H]1O[C@@H]1C(=O)O)C(=O)NCCCCN=C(N)N [Compound E64, l-transepoxy-succinyl-leucylamido-(4-guanidino)-butane, reference compound]
